According to paper PMC8666670, “Malonyl-acyl carrier protein decarboxylase activity promotes fatty acid and cell envelope biosynthesis in Proteobacteria” (The Journal of Biological Chemistry, 2021):

Experiments:
MadB [1] = biological target: T1, MadB (Shewanella oneidensis, UniProt Q8E989, S54A); test: malonyl-CoA decarboxylase assay, HPLC; assay type: biochemical; settings: 4 mM malonyl-CoA, 0.1 M Tris pH 7, 0.2 M NaCl, 37 °C
T1 construct: gene yiiD

MadB [2] = biological target: T2, MadB (Shewanella oneidensis, UniProt Q8E989); test: malonyl-CoA decarboxylase assay, HPLC; assay type: biochemical; settings: 0.1 M Tris pH 7, 0.2 M NaCl, 37 °C; given for the Mad proteins collectively
T2 construct: gene yiiD
T2 sequence (Q8E989 1-145): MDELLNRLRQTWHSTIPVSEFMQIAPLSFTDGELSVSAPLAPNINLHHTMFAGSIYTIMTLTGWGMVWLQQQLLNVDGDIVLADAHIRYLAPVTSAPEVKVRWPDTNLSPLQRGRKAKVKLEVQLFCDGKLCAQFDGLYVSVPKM

MadB [3] = biological target: T3, MadB (Shewanella oneidensis, UniProt Q8E989, D79A); test: malonyl-CoA decarboxylase assay, HPLC; assay type: biochemical; settings: 4 mM malonyl-CoA, 0.1 M Tris pH 7, 0.2 M NaCl, 37 °C
T3 construct: gene yiiD
T3 sequence (Q8E989 entry or part of it D79A): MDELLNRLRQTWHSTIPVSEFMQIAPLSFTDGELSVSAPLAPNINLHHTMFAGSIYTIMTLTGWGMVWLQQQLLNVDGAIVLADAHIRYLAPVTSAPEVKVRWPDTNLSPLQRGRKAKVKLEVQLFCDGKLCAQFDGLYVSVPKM

MadA = biological target: T4, MadA (Escherichia coli, UniProt P0ADQ2, M17A); test: malonyl-CoA decarboxylase assay, HPLC; assay type: biochemical; settings: 0.1 M Tris pH 7, 0.2 M NaCl, 37 °C; given for the Mad proteins collectively
T4 construct: gene fabY; full-length GNAT-hot dog protein, dimer, pET28a His-tag, M17A to remove second start site; expressed in E. coli BL21(DE3)
T4 sequence (P0ADQ2 whole entry M17A): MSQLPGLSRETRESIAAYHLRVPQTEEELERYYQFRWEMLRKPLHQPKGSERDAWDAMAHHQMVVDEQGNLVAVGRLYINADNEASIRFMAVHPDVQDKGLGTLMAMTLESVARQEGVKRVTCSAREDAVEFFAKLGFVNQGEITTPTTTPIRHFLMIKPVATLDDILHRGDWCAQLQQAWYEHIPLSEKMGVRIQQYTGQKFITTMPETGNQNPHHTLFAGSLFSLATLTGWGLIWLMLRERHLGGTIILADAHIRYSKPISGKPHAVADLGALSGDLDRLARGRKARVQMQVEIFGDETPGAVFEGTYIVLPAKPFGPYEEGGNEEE

MadA^C = biological target: T5, MadA^C (Escherichia coli, UniProt P0ADQ2); test: malonyl-CoA decarboxylase assay, HPLC; assay type: biochemical; settings: 0.1 M Tris pH 7, 0.2 M NaCl, 37 °C; given for the Mad proteins collectively
T5 construct: gene fabY; C-terminal hot dog domain, residues 171-329, His6-tag cleaved by thrombin, dimer; expressed in E. coli BL21(DE3)
T5 sequence (P0ADQ2 171-329): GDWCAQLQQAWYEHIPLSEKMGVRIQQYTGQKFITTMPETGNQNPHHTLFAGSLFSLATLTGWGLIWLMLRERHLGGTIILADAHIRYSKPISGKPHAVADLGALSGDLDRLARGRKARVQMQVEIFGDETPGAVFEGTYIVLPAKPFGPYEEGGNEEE

GlmU = biological target: T6, GlmU (Escherichia coli, UniProt P0ACC7); test: surface plasmon resonance, immobilised His-tagged GlmU, […] equilibrium affinity; assay type: binding; settings: read-out: equilibrium dissociation constant
T6 construct: full-length in pET28a, His-tag kept; expressed in E. coli BL21(DE3)
T6 sequence (P0ACC7 whole entry): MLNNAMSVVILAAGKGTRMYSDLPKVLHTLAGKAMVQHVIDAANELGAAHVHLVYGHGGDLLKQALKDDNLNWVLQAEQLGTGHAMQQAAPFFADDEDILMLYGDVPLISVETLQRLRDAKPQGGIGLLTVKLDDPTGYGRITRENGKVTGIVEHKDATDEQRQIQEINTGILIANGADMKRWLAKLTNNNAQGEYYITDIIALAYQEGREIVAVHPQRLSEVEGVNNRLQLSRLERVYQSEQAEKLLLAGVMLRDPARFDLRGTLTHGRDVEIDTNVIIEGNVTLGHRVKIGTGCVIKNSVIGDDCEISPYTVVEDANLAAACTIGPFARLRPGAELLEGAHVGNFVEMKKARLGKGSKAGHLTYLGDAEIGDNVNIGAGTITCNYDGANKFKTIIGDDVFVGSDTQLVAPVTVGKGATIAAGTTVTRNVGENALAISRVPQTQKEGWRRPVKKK

T1 sequence (Q8E989 entry or part of it S54A): as the sequence (Q8E989 entry or part of it D79A) above, with S54A, A79D counted along it

Km (MadB [2]) [mM] | Km (MadA) [mM] | Km (MadA^C) [mM] | Kd (GlmU) [µM] | Structure (SMILES) | malonyl-CoA decarboxylase assay, HPLC (MadB [1]) | malonyl-CoA decarboxylase assay, HPLC (MadB [3])
> 5 | > 5 | > 5 | – | CC(C)(COP(=O)(O)OP(=O)(O)OC[C@H]1O[C@@H](n2cnc3c(N)ncnc32)[C@H](O)[C@@H]1OP(=O)(O)O)[C@@H](O)C(=O)NCCC(=O)NCCSC(=O)CC(=O)O [malonyl-CoA] | The MadB(S54A) and MadB(D79A) mutants had nearly normal malonyl-CoA decarboxylase activity | The MadB(S54A) and MadB(D79A) mutants had nearly normal malonyl-CoA decarboxylase activity
– | – | – | 967 ± 48.3 | CC(=O)SCCNC(=O)CCNC(=O)[C@H](O)C(C)(C)COP(=O)(O)OP(=O)(O)OC[C@H]1O[C@@H](n2cnc3c(N)ncnc32)[C@H](O)[C@@H]1OP(=O)(O)O [acetyl-CoA] | – | –
